From patent publication US12233145B2, “Ultra-violet absorbing compounds” (CIIMAR—CENTRO DE INVESTIGACAO MARINHA E AMBIENTAL, priority 2018, dated 2025)

Legend:
[1] = UV-Vis absorption of scytoneman-like compounds; format: physicochemical
Source text: The compounds were isolated from cyanobacteria collected from a small saltern pond located just behind the primary dune in Mrizika, Morocco (GPS coordinates: 32.955807, −8.779638). […] To explore the chemodiversity of the mat, the biomass was freeze-dried (650 g, d.w.) and extracted using a dichloromethane/methanol mixture (2:1). The crude extract was then fractionated by vacuum liquid chromatography using a solvent gradient with increasing polarity from 100% hexanes to 100% ethyl acetate and then to 100% MeOH. […] The filtered solution was subfractionated through flash chromatography using a gradient of hexanes, ethyl acetate to methanol.

[2] = test system: SY-SH5Y (neuroblastoma cell line); assay: Cytotoxicity tests using the MTT assay; format: cell-based; settings: final concentration 10 μg mL^−1
Experimental: 1% DMSO (v/v) was used as negative control and 20% DMSO (v/v) as a positive control;
The pure compounds were also tested in cytotoxicity assays using the MTT assay.

[3] = test system: Staphylococcus aureus (ATCC 29213); assay: Antimicrobial assay, disc diffusion method; format: cell-based; settings: final concentration of 15 μg mL^−1; S. aureus ATCC 29213
Experimental: Kanamycin and ampicillin (15 μg) were used as positive controls.
The pure compounds were also tested in antimicrobial assays using the disc diffusion method. […] Apart from its sunscreen function, the previously known scytonemins have been associated with anticancer and antioxidative activity, but no antimicrobial activity has ever been reported for any of the scytoneman family of compounds until now.

cyanobacteria = settings: cited from earlier work
[4] = Table 1, identification by LC-HRMS analysis

Substance | Main absorbance regions [1, 4] | Main absorbance regions ([1]; Table 2, UV-Vis spectra) | Max wavelength ([1]; maximum absorption wavelengths, UV-Vis spectra) [nm] | cell viability ([2]; 24 h of exposure) [%] | cell viability ([2]; 48 h of exposure) [%] | antimicrobial activity [3] | reduction of the UV-A radiation that penetrates the cells (cyanobacteria)
3,3′-dihydroxyscytonemin [585.2061] | UVB | UVB | 293 |  |  |  | 
3′-hydroxy-3-methoxyscytonemin [595.1864] | Green/blue | Green/blue |  |  |  |  | 
3′-hydroxyscytonemin | UVA | UVA |  | 37.8 | 18.3 | presented antimicrobial activity | 
scytonemin |  |  |  |  |  |  | up to 90%
